Experimental findings from patent US8129396B2, “2-[1H-benzimidazol-2(3H)-ylidene]-2-(pyrimidin-2-yl)acetamides and 2-[benzothiazol-2(3H)-ylidene]-2-(pyrimidin-2-yl)acetamides as kinase inhibitors” (Telik, Inc., priority 2008, dated 2012) are described below.

For experiment [1], the system named is HCT116 (human colon carcinoma) cells. Briefly: HCT116 cytotoxicity assay (CellTiter-Glo). Format: cell-based. The note with it: HCT-116, 72 h, cytotoxicity, three days culture, read-out: HCT116 IC50. In general terms: Cellular ATP, detected with luciferase, serves as a proxy for viable cell number.
Experiment [2] concerns the target T1, Aurora A kinase (Homo sapiens, UniProt O14965).
T1 construct: purchased Upstate Biotech
T1 sequence (O14965 1-403): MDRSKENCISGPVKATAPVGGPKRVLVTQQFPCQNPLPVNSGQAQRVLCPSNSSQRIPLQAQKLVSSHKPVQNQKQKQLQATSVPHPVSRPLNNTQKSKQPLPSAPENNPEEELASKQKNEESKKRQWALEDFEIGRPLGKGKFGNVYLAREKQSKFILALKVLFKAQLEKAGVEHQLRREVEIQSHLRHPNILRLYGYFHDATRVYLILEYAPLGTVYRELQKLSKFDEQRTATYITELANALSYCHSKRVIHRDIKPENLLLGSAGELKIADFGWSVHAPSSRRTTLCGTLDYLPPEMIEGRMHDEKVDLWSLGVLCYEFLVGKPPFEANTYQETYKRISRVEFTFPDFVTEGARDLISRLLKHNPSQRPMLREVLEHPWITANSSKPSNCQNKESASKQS
Briefly: Aurora A kinase assay (IMAP fluorescence polarization). Type of experiment: biochemical. The note with it: 10 μM ATP; rounded to 1 significant figure; read-out: Aur-A IC50. The method in brief:
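Compounds (eight 3-fold dilutions, 2.5% DMSO final) were preincubated 5 min at room temperature with Aurora A kinase in buffer with 1 mM DTT. Reaction with 100 nM fluorescein-PKAtide and 10 μM ATP ran 45 min at room temperature, then was stopped with IMAP binding reagent; fluorescence polarization was read after 30 min.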
A general note: Fluorescence polarisation rises when a labelled molecule tumbles more slowly, as on binding a larger partner.

Experiment [3] deals with HL60 (human promyelocytic leukemia) cells. The experiment in a line: HL60 cytotoxicity assay (CellTiter-Glo). Type of experiment: cell-based. The note with it: HL-60, 72 h, cytotoxicity, three days culture, read-out: HL60 IC50. From the text: The cell lines HL60 (human promyelocytic leukemia) and HCT116 (human colon carcinoma) were obtained from the American Type Culture Collection, Manassas, Va., U.S.A., and HUVEC-2 (human umbilical vein endothelial cells) from BD Biosciences, Bedford, Mass., U.S.A. Aurora A kinase was obtained from Upstate Biotech, Billerica, Mass., U.S.A.; Aurora B kinase from BPS Bioscience, San Diego, Calif., U.S.A.; and VEGFR2 kinase from Cell Signaling Technology, Danvers, Mass., U.S.A. The IMAP FP Screening Express kit was obtained from Molecular Devices, Sunnyvale, Calif., U.S.A.; the CellTiter-Glo assay kit from Promega Corporation, Madison, Wis., U.S.A.; and the Cellular DNA Cytometric Analysis Reagent Kit and BrdU labeling and detection kit from Roche Diagnostics Corporation, Indianapolis, Ind., U.S.A. All products were used in accordance with manufacturer's directions. Kinase inhibition assays and the histone phosphorylation (p-H3) assay were conducted in duplicate, and the cytotoxicity and HUVEC proliferation assays were conducted in triplicate, in each case with solvent control.
Log-phase cells were trypsinized, collected by centrifugation, and resuspended in a small volume of fresh medium, and the density of viable cells was determined following Trypan Blue staining. Cells were diluted in fresh media (1×10^4 cells/mL for HL60 and 4×10^4 cells/mL for HCT116 cells), the test compounds (concentrations between 0.1 μM and 200 μM, dissolved in DMSO, 50 μL) added immediately after dilution to achieve a final DMSO concentration of 0.5%, then the suspensions added at 150 μL/well to 96-well plates, and incubated overnight to allow attachment in the case of adherent cells. The cells were cultured for three days (about three doubling times). The cells were then collected by centrifugation, and 100 μL of the culture supernatant was replaced by the CellTiter-Glo reagent. After incubation for 15 minutes at room temperature, the plate was read with a luminometer.

Experiment [4] has as its target T2, VEGFR2 kinase (Homo sapiens, UniProt P35968).
T2 construct: purchased Cell Signaling Technology
The experiment in a line: VEGFR2 kinase assay. Type of experiment: biochemical. The note with it: 6 μM ATP, 1 mM MnCl2; rounded to 1 significant figure. The method in brief:
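VEGFR2 phosphorylates CSKtide with 6 μM ATP and 1 mM MnCl2 for 1 hr, otherwise following the Aurora A kinase protocol. Detection by IMAP fluorescence polarization, binding reagent diluted 1:1200 in 1:1 binding buffer A/B. Run in duplicate with solvent control.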

Experiment [5] has as its target T3, Aurora B kinase (Homo sapiens, UniProt Q96GD4).
T3 construct: purchased BPS Bioscience
Briefly: Aurora B kinase assay (IMAP fluorescence polarization). Format: biochemical. The note with it: 10 μM ATP; rounded to 1 significant figure; read-out: Aur-B IC50. The method in brief: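 Reaction started with 100 nM fluorescein-labelled PKAtide and 10 μM ATP, run 45 min at room temperature, then stopped with IMAP binding reagent (1:400). After 30 min shaking at room temperature, fluorescence polarization read; run in duplicate with solvent control.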

Experiment [6] deals with HUVEC-2 (human umbilical vein endothelial cells). The experiment in a line: HUVEC VEGF-dependent proliferation assay (BrdU). The note with it: VEGF (25 ng/mL)-dependent proliferation, read-out: HUVEC IC50. Type of experiment: cell-based. The method in brief:
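HUVEC-2 cells on gelatin got serially diluted compound (0.5% DMSO final), and VEGF (25 ng/mL) was added 2 hr later. BrdU (10 μM) went in after one day, with labelling for another day. VEGF-dependent proliferation was read by BrdU detection, in triplicate.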

Experiment [7] concerns p-H3 in HCT116 cells. The experiment in a line: Histone phosphorylation (p-H3) assay. Type of experiment: cell-based. The note with it: Homo sapiens, HCT-116; HCT116 cells, 4 hr incubation; read-out: p-H3 IC50. The procedure, abridged:
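HCT116 cells (2.5×10^4/well, attached overnight) treated 4 h with 8-point 3-fold compound dilutions at 0.5% DMSO. Lysates dot-blotted onto nitrocellulose and probed for p-H3 with β-actin on the same membrane, fluorescent secondary antibodies, Odyssey scan; duplicate wells.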

The structures appear in SMILES notation.

T3 sequence (Q96GD4 whole entry): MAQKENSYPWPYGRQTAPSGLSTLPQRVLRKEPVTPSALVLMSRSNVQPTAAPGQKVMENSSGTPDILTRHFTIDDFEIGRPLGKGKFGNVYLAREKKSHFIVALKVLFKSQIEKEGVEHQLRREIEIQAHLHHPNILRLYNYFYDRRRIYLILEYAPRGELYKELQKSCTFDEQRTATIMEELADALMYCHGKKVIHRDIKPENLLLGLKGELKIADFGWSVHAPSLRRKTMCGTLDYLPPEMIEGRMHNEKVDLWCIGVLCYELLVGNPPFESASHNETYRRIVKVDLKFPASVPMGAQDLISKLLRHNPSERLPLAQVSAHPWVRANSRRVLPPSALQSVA
T2 sequence (P35968 20-1356): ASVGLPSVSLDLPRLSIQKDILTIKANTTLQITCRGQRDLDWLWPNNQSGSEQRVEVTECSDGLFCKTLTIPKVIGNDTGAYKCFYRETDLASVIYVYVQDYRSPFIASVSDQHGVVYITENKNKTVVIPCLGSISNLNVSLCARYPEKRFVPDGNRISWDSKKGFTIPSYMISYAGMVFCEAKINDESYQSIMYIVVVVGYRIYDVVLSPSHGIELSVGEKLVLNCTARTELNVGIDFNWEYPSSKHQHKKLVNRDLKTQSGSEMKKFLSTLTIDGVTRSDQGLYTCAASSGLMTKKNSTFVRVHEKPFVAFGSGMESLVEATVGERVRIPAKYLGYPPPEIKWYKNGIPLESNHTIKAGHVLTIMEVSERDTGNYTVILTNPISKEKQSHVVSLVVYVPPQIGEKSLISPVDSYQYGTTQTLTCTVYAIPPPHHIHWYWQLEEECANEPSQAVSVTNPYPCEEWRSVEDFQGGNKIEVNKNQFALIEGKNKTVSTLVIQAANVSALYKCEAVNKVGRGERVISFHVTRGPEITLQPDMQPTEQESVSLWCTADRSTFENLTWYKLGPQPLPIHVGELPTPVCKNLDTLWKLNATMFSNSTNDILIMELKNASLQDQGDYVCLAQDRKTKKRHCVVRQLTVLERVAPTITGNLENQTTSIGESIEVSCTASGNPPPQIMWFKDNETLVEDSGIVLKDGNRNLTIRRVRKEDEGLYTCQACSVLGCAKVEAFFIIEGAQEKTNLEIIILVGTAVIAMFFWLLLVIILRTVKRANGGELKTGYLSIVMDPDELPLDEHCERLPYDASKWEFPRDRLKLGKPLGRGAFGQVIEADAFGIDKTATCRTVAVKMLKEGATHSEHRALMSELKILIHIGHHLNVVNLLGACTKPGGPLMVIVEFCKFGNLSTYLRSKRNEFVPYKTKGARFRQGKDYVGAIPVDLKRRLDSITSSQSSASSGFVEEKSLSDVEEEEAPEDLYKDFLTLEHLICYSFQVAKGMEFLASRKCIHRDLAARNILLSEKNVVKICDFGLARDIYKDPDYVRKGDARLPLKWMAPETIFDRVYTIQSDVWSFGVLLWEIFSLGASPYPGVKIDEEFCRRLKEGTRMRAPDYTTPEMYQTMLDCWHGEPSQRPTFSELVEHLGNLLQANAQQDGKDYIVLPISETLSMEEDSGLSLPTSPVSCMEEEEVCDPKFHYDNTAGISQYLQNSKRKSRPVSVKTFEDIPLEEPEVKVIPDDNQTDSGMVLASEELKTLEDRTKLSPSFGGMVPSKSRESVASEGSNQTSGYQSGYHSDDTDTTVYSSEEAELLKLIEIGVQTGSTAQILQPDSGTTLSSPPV

The IC50 is the midpoint of a concentration-inhibition curve. Consider `NC(=O)C(=C1Nc2ccccc2N1)c1nccc(C(F)(F)F)n1` [Compound 1A, 2-[1H-benzimidazol-2(3H)-ylidene]-2-(4-trifluoromethylpyrimidin-2-yl)acetamide], for which the half-maximal inhibitory concentration (IC50) in experiment [1] was found to be 300 nM; in experiment [2], 10 nM; in experiment [3], 1000 nM; in experiment [4] it was 10 nM; in experiment [5], 5 nM; in experiment [6], 70 nM. The 50% inhibitory concentration (IC50) in experiment [7] came to 200 nM.
In the case of `NC(=O)/C(=C1\Nc2ccccc2S1)c1nccc(C(F)(F)F)n1` [Compound 2A], the IC50 in experiment [1] is 2000 nM; in experiment [2], 30 nM; in experiment [3], 3000 nM; in experiment [4], 90 nM; in experiment [5] it was 6 nM; in experiment [6], 50 nM. For the same molecule, the half-maximal inhibitory concentration (IC50) in experiment [7] amounted to 2000 nM.
On to `NC(=O)C(=C1Nc2cc(F)c(F)cc2N1)c1nccc(C(F)(F)F)n1` [Compound 38A], for which the 50% inhibitory concentration (IC50) in experiment [1] was 800 nM; in experiment [2], 40 nM; in experiment [3], 1000 nM; in experiment [4] it was 200 nM; in experiment [5], 10 nM; in experiment [6], 100 nM. Also, the IC50 in experiment [7] turned out to be 300 nM.
In the case of `CCN(CCCN1CCOCC1)C(=O)c1ccc2c(c1)S/C(=C(/C(N)=O)c1nccc(C(F)(F)F)n1)N2` [Compound 42A], the 50% inhibitory concentration (IC50) in experiment [1] is 500 nM; in experiment [2] it was 10 nM; in experiment [3] it was 30 nM; in experiment [4] it was 20 nM; in experiment [5] it was 6 nM; in experiment [6], 40 nM. In experiment [7], the IC50 turned out to be 300 nM.
Take `NC(=O)/C(=C1\Nc2ccc(C(=O)NCCCn3ccnc3)cc2N1)c1nccc(C(F)(F)F)n1` [Compound 45A]: the IC50 came out at 500 nM in experiment [1]; 20 nM in experiment [2]; 100 nM in experiment [3]; 20 nM in experiment [4]; 7 nM in experiment [5]; 10 nM in experiment [6]. Also, the IC50 in experiment [7] was 900 nM.
For `NC(=O)/C(=C1\Nc2ccc(C(=O)NCCn3ccnc3)cc2S1)c1nccc(C(F)(F)F)n1` [Compound 47A], the 50% inhibitory concentration (IC50) was 300 nM in experiment [1]; 4 nM in experiment [2]; 300 nM in experiment [3]; 20 nM in experiment [4]; 6 nM in experiment [5]; 4 nM in experiment [6]. The IC50 in experiment [7] came out at 200 nM.
For `CCN(CCCn1ccnc1)C(=O)c1ccc2c(c1)N/C(=C(/C(N)=O)c1nccc(C(F)(F)F)n1)N2` [Compound 48A], the IC50 in experiment [1] is 600 nM; in experiment [2], 10 nM; in experiment [3], 100 nM; in experiment [4], 10 nM; in experiment [5], 1 nM; in experiment [6] it was 40 nM. In experiment [7], the IC50 came to 300 nM.
With `NC(=O)/C(=C1\Nc2ccc(C(=O)NCCN3CCC(F)(F)CC3)cc2N1)c1nccc(C(F)(F)F)n1` [Compound 51A], the half-maximal inhibitory concentration (IC50) is 500 nM in experiment [1]; 7 nM in experiment [2]; 50 nM in experiment [3]; 20 nM in experiment [4]; 6 nM in experiment [5]; 30 nM in experiment [6]. Further, the IC50 in experiment [7] stood at 300 nM.
Consider `NC(=O)/C(=C1\Nc2ccc(C(=O)NCCN3CCOCC3)cc2N1)c1nccc(C(F)(F)F)n1` [Compound 53A], for which the half-inhibitory concentration (IC50) in experiment [1] was 300 nM; in experiment [2], 3 nM; in experiment [3], 200 nM; in experiment [4], 20 nM; in experiment [5] it was 10 nM; in experiment [6] it was 30 nM. The IC50 in experiment [7] stood at 200 nM.
Regarding `NC(=O)/C(=C1\Nc2ccc(CCn3ccnc3)cc2N1)c1nccc(C(F)(F)F)n1` [Compound 96A], the IC50 came out at 300 nM in experiment [1]; 2 nM in experiment [2]; 100 nM in experiment [3]; 6 nM in experiment [4]; 3 nM in experiment [5]; 40 nM in experiment [7].
For the molecule `NC(=O)/C(=C1\Nc2ccc(CCc3cccnc3)cc2S1)c1nccc(C(F)(F)F)n1` [Compound 99A], the half-inhibitory concentration (IC50) is 3000 nM in experiment [1]; 20 nM in experiment [2]; 2000 nM in experiment [3]; 100 nM in experiment [4]; 7 nM in experiment [5]; 1000 nM in experiment [7].
Consider `NC(=O)/C(=C1\Nc2ccc(CCN3CCC(F)(F)CC3)cc2S1)c1nccc(C(F)(F)F)n1` [Compound 104A], for which the IC50 in experiment [1] stood at 3000 nM; in experiment [2] it was 30 nM; in experiment [3], 1000 nM; in experiment [4], 60 nM; in experiment [5], 10 nM; in experiment [7] it was 2000 nM.
With `NC(=O)/C(=C1\Nc2ccc(-c3cccnc3)cc2N1)c1nccc(C(F)(F)F)n1` [Compound 107A], the 50% inhibitory concentration (IC50) in experiment [1] is 5000 nM; in experiment [2], 8 nM; in experiment [3], 1000 nM; in experiment [4] it was 40 nM; in experiment [5], 20 nM; in experiment [7], greater than 5000 nM.
For the molecule `NC(=O)/C(=C1\Nc2ccc(-c3cccnc3)cc2S1)c1nccc(C(F)(F)F)n1` [Compound 108A], the 50% inhibitory concentration (IC50) in experiment [1] was 2000 nM; in experiment [2] it was 10 nM; in experiment [3], 2000 nM; in experiment [4] it was 60 nM; in experiment [5], 10 nM; in experiment [7], 3000 nM.
As for `NC(=O)/C(=C1\Nc2ccc(-c3ccccn3)cc2N1)c1nccc(C(F)(F)F)n1` [Compound 109A], the half-inhibitory concentration (IC50) in experiment [1] was 3000 nM; in experiment [2], 20 nM; in experiment [3], 500 nM; in experiment [4] it was 50 nM; in experiment [5], 9 nM; in experiment [7], greater than 5000 nM.
In the case of `Cc1cc2c(cc1C)NC(=C(C(N)=O)c1ncc(C(=O)NCCN3CCOCC3)c(C(F)(F)F)n1)N2` [Compound 136A], the IC50 turned out to be 800 nM in experiment [1]; 20 nM in experiment [2]; 200 nM in experiment [3]; 30 nM in experiment [4]; 200 nM in experiment [6]; 200 nM in experiment [7].
Turning to `Cc1cc(C(F)(F)F)nc(C(C(N)=O)=C2Nc3ccccc3N2)n1` [Compound 138A], the IC50 came out at 1000 nM in experiment [1]; 8 nM in experiment [2]; 400 nM in experiment [3]; 40 nM in experiment [4]; 8 nM in experiment [5]; 500 nM in experiment [7].
With `CCN(C(=O)[C@@H]1CCCN1C)c1ccc2c(c1)N/C(=C(/C(N)=O)c1nccc(C(F)(F)F)n1)N2` [Compound 145A], the IC50 in experiment [1] stood at 200 nM; in experiment [2], 20 nM; in experiment [3], 400 nM; in experiment [4], 10 nM; in experiment [5], 4 nM; in experiment [7] it was 80 nM.
